From doi:10.1101/2023.04.22.537907v1 (biorxiv, 2023) come the findings set out here.

pKd: −log10 of the molar value.

This test has as its target PcVHA-a (vacuolar H+-ATPase subunit a; Pc106526). Nature of the test: microscale thermophoresis with lysate of mCherry-fusion transformants. Type of test: binding, Phytophthora capsici. To be noted: 25 °C; 20% MST power; total protein lysate; mCherry-only control. (Microscale thermophoresis detects binding through changes in fluorescence in a small temperature gradient.)

Broadly, the pKd is the Kd on a negative log10 scale, so that one unit is a factor of ten. A high value points to a low Kd. `O=C(NCc1ncc(C(F)(F)F)cc1Cl)c1c(Cl)cccc1Cl` [fluopicolide] gave a pKd of 4.75.
